Results on three substances are retold here after patent publication US7781199B2, “Identification of a JAK2 mutation involved in Vaquez Polyglobulia” (priority 2004, dated 2010).

For one data set, the system named is V617F JAK2. As to the kind of experiment: Expression of V617F JAK2 in HEL cells after siRNA treatment. The data set is classed as cell-based, human. Particulars: 24 hours after treatment (FIGS. 8 and 9). As for the experimental part:
FIGS. 8 and 9: Expression of V617F Jak2 in HEL cells is reduced 24 hours after treatment with siRNA specific to JAK2 V617F Jak2 (siRNA #1, 3 and 4).
Lanes 0 to 6: HEL cells treated (1 to 6) or non-treated (0) with siRNA V617F Jak2.
Lane C+: 293HEK cells transfected with the V617F Jak2RV vector
(§1) The results are shown FIGS. 8, 9 and 10.

Another data set concerns wild-type JAK2. Description: Expression of wild-type JAK2 in K562 cells after siRNA treatment. The data set is classed as cell-based, human. As to conditions: 24 hours after treatment (FIG. 10). As for the experimental part:
FIG. 10: Level of WT Jak2 expression in K562 cells remains unchanged 24 hours after treatment with siRNA specific to Jak2 V617.
Lane Je: K562 cells treated with siRNA WT Jak2
Lanes 0 to 6: K562 cells treated with siRNA V617F Jak2
Lane C−: 293HEK (no expression of JAK2).
as §1

Entries after “also recorded” stand apart in the source; their conditions may differ.

For “siRNA 1: siRNA specific to the V617F JAK2 mutation; said to correspond to SEQ ID No 25 (probably No 29, UGGAGUAUGUUUCUGUGGA) (listed as RNA, chemistry not given here)”, the “expression of V617F Jak2 protein” value in the data set on V617F JAK2 is “reduced; also recorded: inhibit”. Further, the “level of WT Jak2 expression” value with wild-type JAK2 is recorded as “without inhibiting”.

On to “siRNA 3: siRNA specific to the V617F JAK2 mutation; said to correspond to SEQ ID No 26 (probably No 30, GGAGUAUGUUUCUGUGGAG) (listed as RNA, chemistry not given here)”, for which, in the data set on V617F JAK2, the “expression of V617F Jak2 protein” value was “reduced; also recorded: inhibit”. Moreover, the “level of WT Jak2 expression” value in the data set on wild-type JAK2 is given as “without inhibiting”.

For “siRNA 4: siRNA specific to the V617F JAK2 mutation; said to correspond to SEQ ID No 27 (probably No 31, GAGUAUGUUUCUGUGGAGA) (listed as RNA, chemistry not given here)”, the “expression of V617F Jak2 protein” value with V617F JAK2 is “reduced; also recorded: inhibit”. Also, the “level of WT Jak2 expression” value in the data set with wild-type JAK2 was “without inhibiting”.
